Results as given in patent US20230348453A1, “HALOGENATED-HETEROARYL AND OTHER HETEROCYCLIC KINASE INHIBITORS, AND USES THEREOF” (iOmx Therapeutics AG, priority 2020, published 2023).
Like-named read-outs stand apart in the source and are kept apart here.

What was measured:
RET [1] = molecular target: T1, RET (Homo sapiens (Human), UniProt P07949); experiment: biochemical; settings: read-out: RET residual activity (%) at 1 μM, 1 μM
hERG potassium channel = hERG potassium channel (Homo sapiens (Human), UniProt Q12809); settings: cited from earlier work
in vitro [2] = settings: dog, MDCK, MDCK-wild type cells
[3] = Screening PK in mice after 30 mg/kg po; settings: mouse, in vivo
[4] = cited from earlier work
[5] = human, in vivo; cited from earlier work
MDR1 (P-gp) = MDR1 (P-gp) (Homo sapiens (Human), UniProt P08183); experiment: in vitro; settings: dog, MDCK-MDR1, MDCK-MDR1 cells
RET [6] = molecular target: T1, RET
HCK = HCK (Homo sapiens (Human), UniProt P08631); type: biochemical; settings: Kinase Profiler
K562 CML cells = settings: 10 mg/kg/day; cited from earlier work
KU812 tumours = settings: 50 mg/kg/day for 5 days; cited from earlier work
[7] = Full pharmacokinetic study in mice; settings: mouse, in vivo
CSF1R = CSF1R (Homo sapiens (Human), UniProt P07333); type: biochemical; settings: Kinase Profiler
Sequence of CSF1R (P07333 20-972 limits assumed): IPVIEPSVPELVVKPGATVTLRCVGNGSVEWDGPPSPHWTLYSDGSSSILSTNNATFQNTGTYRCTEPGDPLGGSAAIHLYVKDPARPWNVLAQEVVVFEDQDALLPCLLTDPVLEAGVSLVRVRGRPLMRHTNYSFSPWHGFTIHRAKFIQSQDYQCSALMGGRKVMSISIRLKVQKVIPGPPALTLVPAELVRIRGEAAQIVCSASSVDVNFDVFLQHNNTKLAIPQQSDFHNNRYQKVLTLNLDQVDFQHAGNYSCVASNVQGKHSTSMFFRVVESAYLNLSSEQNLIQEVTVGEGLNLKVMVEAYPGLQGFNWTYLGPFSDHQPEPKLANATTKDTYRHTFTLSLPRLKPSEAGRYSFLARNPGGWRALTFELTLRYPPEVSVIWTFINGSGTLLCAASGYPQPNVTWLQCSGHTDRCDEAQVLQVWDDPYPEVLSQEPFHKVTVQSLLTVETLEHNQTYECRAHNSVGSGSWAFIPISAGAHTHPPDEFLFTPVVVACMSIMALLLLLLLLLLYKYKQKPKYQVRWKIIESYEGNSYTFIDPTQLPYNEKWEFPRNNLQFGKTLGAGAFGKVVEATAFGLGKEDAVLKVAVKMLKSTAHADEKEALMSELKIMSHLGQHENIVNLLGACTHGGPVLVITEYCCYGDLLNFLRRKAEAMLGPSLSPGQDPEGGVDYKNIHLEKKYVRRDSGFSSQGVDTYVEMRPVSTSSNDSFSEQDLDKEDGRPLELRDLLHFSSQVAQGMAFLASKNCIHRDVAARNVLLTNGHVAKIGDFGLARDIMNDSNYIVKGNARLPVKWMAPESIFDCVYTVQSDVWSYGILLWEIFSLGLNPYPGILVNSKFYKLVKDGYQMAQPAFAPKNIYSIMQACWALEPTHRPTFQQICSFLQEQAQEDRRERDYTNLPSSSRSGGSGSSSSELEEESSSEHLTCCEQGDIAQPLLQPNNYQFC

[8] = Metabolite profile in hepatocytes / in vivo
Description: Metabolites are identified using high-resolution mass spectrometry.

HEL cell line [9] = experiment: Cell killing of pMEF2C-negative HEL cell line; type: cell-based
[10] = Plasma stability in mouse plasma; type: in vitro ADME; settings: read-out: plasma stability T1/2
[11] = Murine plasma protein binding
[12] = microsomes
[13] = tested on: MC38 colorectal carcinoma tumours; experiment: MC38 syngeneic mouse tumour model (Example 8.1); settings: MC38; 100 mg/Kg, BID po
[14] = Human hepatocyte stability; type: in vitro ADME; settings: human, hepatocytes
HEL cell line [15] = experiment: Growth inhibition (GI50) of AML cell lines; type: cell-based; settings: Homo sapiens, pMEF2C-negative, read-out: GI50 against HEL cell line
[16] = microsomes; remark: listed apart in the source
[17] = Mouse hepatocyte stability; type: in vitro ADME; settings: hepatocytes
KASUMI-1 cell line [18] = experiment: Growth inhibition (GI50) of AML cell lines; type: cell-based
panel of AML cell lines = experiment: Lysis of a panel of AML cell lines; type: cell-based; settings: cell lines that have phosphorylated MEF2C protein
[19] = tested on: NFKB activity in PANC-1 cells; experiment: TNF-induced NFKB activity (NFKB-dependent luciferase reporter); settings: 10 ng/ml rHuTNF
[20] = tested on: HDAC4 phosphorylation in PANC-1 cells; experiment: HDAC4 phosphorylation (Meso Scale Discovery assay); settings: 10 ng/mL rHuTNF
[21] = Human plasma-protein binding
MV4-11 cell line = experiment: Growth inhibition (GI50) of AML cell lines; type: cell-based; settings: Homo sapiens, MV4-11, read-out: GI50 against MV4-11 cell line
in vivo = settings: male, CD1, mouse, po, 30 mg/kg
in vitro [22] = settings: mouse, microsomes
[23] = in vivo
[24] = Plasma stability in human plasma; type: in vitro ADME; settings: read-out: plasma stability T1/2
KASUMI-1 cell line [25] = experiment: Cell killing of pMEF2C-positive KASUMI-1 cell line; type: cell-based
[26] = tested on: MC38 murine tumour cell line; experiment: TNF-sensitised cell viability assay (CellTiter-Glo); settings: Mus musculus
[27] = tested on: NFKB activity in MC38 cells; experiment: TNF-induced NFKB activity (NFKB-dependent luciferase reporter); settings: 10 ng/ml rMuTNF
in vitro [28] = settings: human, microsomes
HCT116 cells = experiment: TNF-sensitised cell viability assay (CellTiter-Glo); settings: Homo sapiens, HCT-116, read-out: HCT116 IC50 (at 10 ng/ml rHuTNF)
SRC (GST-HIS-tag) = SRC (GST-HIS-tag) (Homo sapiens (Human), UniProt P12931); type: biochemical
SIK1 = SIK1 (Homo sapiens (Human), UniProt P57059); settings: read-out: SIK1 IC50
ABL1 wt = ABL1 wt (Homo sapiens (Human), UniProt P00519); type: biochemical
Sequence of ABL1 wt (P00519 118-535 limits assumed): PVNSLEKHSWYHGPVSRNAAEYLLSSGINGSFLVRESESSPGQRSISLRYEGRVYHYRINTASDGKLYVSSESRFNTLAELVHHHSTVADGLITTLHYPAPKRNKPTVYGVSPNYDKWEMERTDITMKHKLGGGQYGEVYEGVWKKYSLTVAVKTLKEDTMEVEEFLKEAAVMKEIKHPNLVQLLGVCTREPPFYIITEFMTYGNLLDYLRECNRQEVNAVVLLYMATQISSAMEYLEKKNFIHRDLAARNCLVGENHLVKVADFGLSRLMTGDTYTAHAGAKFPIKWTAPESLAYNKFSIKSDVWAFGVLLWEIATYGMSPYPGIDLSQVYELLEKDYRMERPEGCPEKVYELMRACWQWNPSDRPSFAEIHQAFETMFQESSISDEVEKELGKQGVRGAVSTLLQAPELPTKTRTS

SIK2 = SIK2 (Homo sapiens (Human), UniProt Q9H0K1); settings: read-out: SIK2 IC50
SIK3 = SIK3 (Homo sapiens (Human), UniProt Q9Y2K2); settings: read-out: SIK3 IC50

T1 sequence (P07949 29-1114 limits assumed): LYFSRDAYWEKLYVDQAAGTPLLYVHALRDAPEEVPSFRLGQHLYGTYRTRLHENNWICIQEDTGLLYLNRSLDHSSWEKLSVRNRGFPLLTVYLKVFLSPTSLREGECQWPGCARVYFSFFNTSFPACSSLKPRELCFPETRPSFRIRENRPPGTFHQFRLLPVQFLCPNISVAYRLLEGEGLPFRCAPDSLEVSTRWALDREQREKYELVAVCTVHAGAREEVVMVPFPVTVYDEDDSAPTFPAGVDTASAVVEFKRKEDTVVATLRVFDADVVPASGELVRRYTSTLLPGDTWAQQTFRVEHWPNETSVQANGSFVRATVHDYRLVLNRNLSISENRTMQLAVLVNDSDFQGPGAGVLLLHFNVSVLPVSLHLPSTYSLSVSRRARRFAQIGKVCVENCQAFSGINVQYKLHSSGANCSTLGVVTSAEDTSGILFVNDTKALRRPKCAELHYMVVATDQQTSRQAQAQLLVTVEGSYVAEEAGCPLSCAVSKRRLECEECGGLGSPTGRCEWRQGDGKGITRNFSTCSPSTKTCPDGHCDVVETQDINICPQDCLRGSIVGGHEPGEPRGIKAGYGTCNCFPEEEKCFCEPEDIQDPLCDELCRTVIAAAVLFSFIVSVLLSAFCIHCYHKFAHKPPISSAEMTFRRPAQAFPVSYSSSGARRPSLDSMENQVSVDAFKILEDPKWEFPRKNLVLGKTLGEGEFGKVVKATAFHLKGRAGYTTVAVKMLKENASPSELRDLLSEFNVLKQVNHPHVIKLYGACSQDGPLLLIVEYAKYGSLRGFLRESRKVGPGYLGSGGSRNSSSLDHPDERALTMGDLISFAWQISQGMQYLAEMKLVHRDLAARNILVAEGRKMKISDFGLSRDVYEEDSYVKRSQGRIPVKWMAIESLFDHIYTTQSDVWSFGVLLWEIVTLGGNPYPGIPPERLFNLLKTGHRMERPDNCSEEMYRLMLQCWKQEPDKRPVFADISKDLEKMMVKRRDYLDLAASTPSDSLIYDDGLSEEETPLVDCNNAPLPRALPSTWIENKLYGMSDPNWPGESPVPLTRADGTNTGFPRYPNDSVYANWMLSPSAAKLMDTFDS

Structure (SMILES): Cc1nc(Nc2ncc(C(=O)Nc3c(C)cccc3Cl)s2)cc(N2CCN(CCO)CC2)n1 [Compound A8, N-(2-chloro-6-methylphenyl)-2-((6-(4-(2-hydroxyethyl)piperazin-1-yl)-2-methylpyrimidin-4-yl)amino)thiazole-5-carboxamide]
- remaining activity at 1 µM (RET [1]): < 40%
- inhibition of hERG currents at 3 uM (hERG potassium channel): about 6%
- inhibition of hERG currents at 10 uM (hERG potassium channel): ~36%
- Papp (in vitro [2]; Mean Papp A > B (10^−6 cm/s)): 21 ×10⁻⁶ cm/s
- Papp (in vitro [2]; Mean Papp B > B (10^−6 cm/s)): 49 ×10⁻⁶ cm/s
- Cmax after 2 h [3]: 550 ng/mL
- severe gastrointestinal haemorrhage, including fatalities ([4]; all clinical studies): 4 % of patients
- cardiomyopathy, heart failure congestive, diastolic dysfunction, fatal myocardial infarction, and left ventricular dysfunction ([4]; human, in vivo): 1.6 % of patients
- patients with cardiomyopathy, heart failure congestive, diastolic dysfunction, fatal myocardial infarction, and left ventricular dysfunction [5]: 1.6%
- Papp (MDR1 (P-gp)): 105 ×10⁻⁶ cm/s
- Papp (MDR1 (P-gp); Mean Papp A > B (10^−6 cm/s)): 2.4 ×10⁻⁶ cm/s
- RET residual activity (%) at 1 μM (RET [6]): 39%
- HCK residual activity (HCK): less than 1%
- survival of mice inoculated intracranially with K562 CML cells (K562 CML cells): increased survival
- outcome in mice bearing large KU812 tumours (KU812 tumours): curative
- Cmax (ng/ml), Total [7]: 550 ng/mL

Structure (SMILES): Cc1nc(Nc2ncc(C(=O)Nc3c(C)csc3Cl)s2)cc(N2CCN(CCO)CC2)n1 [Compound C7, N-(2-chloro-4-methylthiophen-3-yl)-2-((6-(4-(2-hydroxyethyl)piperazin-1-yl)-2-methylpyrimidin-4-yl)amino)thiazole-5-carboxamide]
- CSF1R residual activity (CSF1R): less than 1%
- quinone-imine reactive metabolite [8]: not observed
- cell killing (HEL cell line [9]): low cell killing
- half-life [10]: > 150 min
- tolerable dose (BID by gavage, female C57BL/6, seven days): up to 100 mg/kg
- HRD in vivo @BID (highest recommended dose, BID): 100 mg/kg
- HRD in vivo @QD (highest recommended dose, QD): 100 mg/kg
- Papp (in vitro [2]; Mean Papp A > B (10^−6 cm/s)): 9 ×10⁻⁶ cm/s
- Murine plasma protein binding, Percentage unbound (%) ([11]; Table 5A): 5%
- Murine plasma protein binding, Percentage unbound (%) ([11]; Table 5.1A): 3%
- recovery at 4 h ([11]; mouse): 87%
- Human liver microsomal stability, Intrinsic clearance [12]: 253 L/min/mg
- Human liver microsomal stability, % Remaining at 40 min (%) [12]: 1%
- Body weight increase (%) [13]: 1.0%
- Non-treatment related death [13]: 3/16
- Tumour growth inhibition (%) [13]: 78%
- half-life ([14]; read-out: Human hepatocyte stability, Half-life): 54 min
- microsomal CLint ([14]; read-out: Human hepatocyte stability, Intrinsic clearance): 26 µL/min/mg
- half-life ([14]; read-out: half-life in the presence of human hepatocytes (converted)): ~60 min
- GI50 (HEL cell line [15]): ~5 µM
- Mouse liver microsomal stability, % Remaining at 40 min (%) [16]: 10%
- half-life [17]: 50 min
- microsomal CLint ([17]; read-out: Mouse hepatocyte stability, Intrinsic clearance): 28 µL/min/mg
- Papp (MDR1 (P-gp); Mean Papp A > B (10^−6 cm/s)): 2 ×10⁻⁶ cm/s
- GI50 (KASUMI-1 cell line [18]; Homo sapiens, Kasumi 1, read-out: GI50 against KASUMI-1 cell line, pMEF2C-positive): ~2 nM
- GI50 (KASUMI-1 cell line [18]; read-out: GI50 against KASUMI-1 cell line, pMEF2C-positive): 1.6 nM
- lysis of AML cell lines (panel of AML cell lines): strong lysis
- Inhibition of NFKB activity (PANC-1) ([19]; PANC-1 reporter cells): +
- Inhibition of NFKB activity ([19]; PANC-1 reporter cells (Table 9C)): +
- HCK residual activity (HCK): less than 1%
- Inhibition of HDAC4 phosphorylation ([20]; 3 h): +
- Inhibition of HDAC4 phosphorylation ([20]; 3 h (Table 9C)): +
- Human plasma-protein binding, Percentage unbound (%) ([21]; Table 5A): <1%
- Human plasma-protein binding, Percentage unbound (%) ([21]; Table 5.1A): 2%
- recovery at 4 h ([21]; human): 75%
- GI50 (MV4-11 cell line): 480 nM
- AUC(0-inf) (in vivo): 1.31 µM·h
- AUC(0-t) (in vivo): 1.16 µM·h
- Cmax (in vivo): 474 ng/mL
- MRT last (in vivo): 2.75 h
- half-life (in vivo): 85.2 min
- half-life (in vitro [22]): 13 min
- microsomal CLint (in vitro [22]): 110 µL/min/mg
- % AUCextrap ([23]; male, CD1, mouse, iv, 1 mg/kg): 5.81%
- % AUCextrap ([23]; male, CD1, mouse, po, 30 mg/kg): 0.45%
- % AUCextrap, Free ([23]; male, CD1, mouse, po, 30 mg/kg): 11.24%
- % AUCextrap, Total ([23]; male, CD1, mouse, po, 30 mg/kg): 11.24%
- AUCinf (nM*h), Free ([23]; male, CD1, mouse, po, 30 mg/kg): 58.79 nM·h
- AUClast (nM*h), Free ([23]; male, CD1, mouse, po, 30 mg/kg): 52.07 nM·h
- Rsq, Free ([23]; mouse, po, 30 mg/kg): 0.99
- Rsq, Total ([23]; mouse, po, 30 mg/kg): 0.99
- half-life [24]: > 150 min
- cell killing (KASUMI-1 cell line [25]): highly potent cell killing
- IC50 ([26]; MC-38, read-out: MC38 IC50 (at 100 ng/mL rMuTNF)): < 200 nM
- EC50 ([26]; MC-38, read-out: mean EC50 of sensitising MC38 tumour cells to TNF-mediated killing): ~150 nM
- Inhibition of NFKB activity (MC38) [27]: +
- half-life (in vitro [28]): 10 min
- microsomal CLint (in vitro [28]): 142 µL/min/mg
- IC50 (HCT116 cells): < 100 nM

Structure (SMILES): Cc1nc(Nc2ncc(C(=O)Nc3c(C)noc3C)s2)cc(N2CCN(CCO)CC2)n1 [Compound C9]
- Murine plasma protein binding, Percentage unbound (%) ([11]; Table 5A): 44%
- IC50 (SRC (GST-HIS-tag)): 6.44 nM
- Human liver microsomal stability, Intrinsic clearance [12]: <14 L/min/mg
- Human liver microsomal stability, % Remaining at 40 min (%) [12]: 89%
- IC50 (SIK1): 169 nM
- IC50 (ABL1 wt): 27.4 nM
- Mouse liver microsomal stability, Intrinsic clearance (L/min/mg) [16]: <14
- Mouse liver microsomal stability, % Remaining at 40 min (%) [16]: 83%
- Human plasma-protein binding, Percentage unbound (%) ([21]; Table 5A): 6%
- IC50 (SIK2): 232 nM
- IC50 (SIK3): 800 nM
